Data on eleven molecules can be found in patent US20220143041A1, “COMBINED THERAPY FOR NMDAR ANTAGONIST-RESPONSIVE NEUROPSYCHIATRIC DISORDERS” (Glytech LLC, priority 2017, published 2022).

The structures appear in SMILES notation. “Also recorded” adds a separate entry of the source. Where only a bound is given, the exact number is not on record here.

One data set deals with Male BalbC/J mice. Description: Forced swim test (FST), immobility time. The class given is in vivo. The conditions noted are these: for Immobility time in the rodent forced swim test, Mean: 6-min test, IP 30 min prior, DCS 300 mg/kg, mirtazapine or isomer 5 mg/kg, alone or combined; for Effect on immobility in the forced swim test vs control: DCS alone; for FST additional beneficial effects in combination with DCS / FST effect of combined antidepressant and DCS vs either agent alone / DCS alone: agent (dose) + DCS 300 mg/kg IP, FIG. 2.

Data set [1] is described as follows: Pharmacokinetics of D-cycloserine in rodents (plasma level, UPLC/MS/MS). The data set is classed as in vivo. The conditions noted are these: mice. The method, then: For this study, male C57BL/6J mice (8 weeks old) from Jackson Laboratories (Bar Harbor, Me.) were used.
For each treatment group a total of 12 mice were dosed: 4 mice were collected at 30, 60 and 120 min. Mean plasma level was computed over the 30-60 min time period.

Data set [2] relates to mice. The data set is described as follows: Marble burying test. The class given is in vivo. The settings on record: for Marble burying effect relative to racemic mirtazapine: 1-10 mg/kg IP. The source says: Distance traveled during the test was captured by cameras and quantified using Video Tracker Software (ViewPoint Life Sciences Software, France). At the end of the test mice were removed from the cages and the number of unburied marbles was counted. A marble was considered buried if it was covered at least two thirds with bedding. An effect was considered significant if p<0.05.
from the cages and the number of unburied marbles was counted. A marble was considered buried if it was covered at least two thirds with bedding.
The following compounds were used. […] This compound was dissolved in 20% cyclodextrin and administered IP 30 min prior to test at a dose volume of 10 ml/kg. • Combination DSC (300 mg/kg)+Mirtazapine ([…]) was administered IP as a cocktail in a single injection 30 minutes prior to test at a dose volume of 10 ml/kg.
Mirtazapine is a racemic mix of separate R(−) and S(+) isomers. A follow-up study evaluated the relative effects of the two isomers independently. Methods are the same as for Example 3.

For data set [3] the following is noted: cited from earlier work.
Data set [4] deals with mice. The settings on record: mice (Carlsson et al.); cited from earlier work.
Another data set deals with T1, NMDAR (Homo sapiens, UniProt Q05586).
T1 construct: from tissue; host or cells: endogenous receptors of the treated subject (brain), in vivo
The settings on record: in vivo; cited from earlier work.

Data set [5] concerns symptoms of major depression. The settings on record: 250 mg/day; cited from earlier work.
The test system of another data set is Male C57BL/6J mice. Description: Open field test, locomotor activity. The settings on record: vs vehicle.
Data set [6] in a line: Pharmacokinetics of D-cycloserine in humans (literature).
A further data set has as its system rodent. The conditions noted are these: Freynhagen et al.; cited from earlier work.
Setting [7] is: FIG. 3, IP 30 min prior, paroxetine 5, mirtazapine 5.5, D-cycloserine 30 and 300 mg/kg, combination 300 + 5.5 mg/kg.
Setting [8] is: humans, 250 mg PO every 12 hrs (Park et al.).
[9] abbreviates: humans, 500 mg, fasting (Zhu et al.).
The mark [10] stands for this setting: patients, mean dose 8.8 mg/kg, mostly 500 mg/day (Hung et al.).
Where [11] appears, read: 500 mg, corresponding to AUC over 24 hr (Zhu et al.).
The mark [12] stands for this setting: FIG. 4, IP, paroxetine 5, mirtazapine and S-mirtazapine 1, 2.5, 5, 10, R-mirtazapine 10 mg/kg.

On to `N[C@@H]1CON=C1O` [DCS, 3-Isoxazolidinone, 4-amino-, (4R)-(9CI)], for which, in the data set with Male BalbC/J mice, the “Immobility time in the rodent forced swim test, Mean” value (“Immobility time” for short) came out at 42.08 s. In addition, the “Effect on immobility in the forced swim test vs control” value in the data set with Male BalbC/J mice (30 mg/kg (FIG. 1, PO)) is given as “no significant effect”; in the data set on Male BalbC/J mice (doses of 100 mg/kg or above (FIG. 1, PO)), “statistically significant (p<0.001) reduction”. Further, the “Mean plasma levels over 30-60 min” value in data set [1] (D-cycloserine 30 mg/kg IP) is given as “below 25 microgram/mL”; in data set [1] (D-cycloserine 30 mg/kg IP, listed as D-cycloserine), 24.89 microgram/mL; in data set [1] (D-cycloserine 100 mg/kg IP), 74.92 microgram/mL; in data set [1] (D-cycloserine 500 mg/kg IP), 375.44 microgram/mL; in data set [1] (D-cycloserine 1000 mg/kg IP) it was 510.73 microgram/mL. In addition, in data set [1] (male, C57BL/6J, mouse, in vivo, IP, read-out: Maximum tolerated dose), the MTD was 500 to 1000 mg/kg. For the same molecule, the “Maximum tolerated blood level” value in data set [1] (suggested from maximum tolerated dose) is recorded as “approximately 500 ug/mL”. Further, in the data set on mice [2] (setting [7]), the “Number of marbles buried compared to vehicle” value (“Number … compared to vehicle” below) is on record as “did not affect”. For the same molecule, in [3] (setting [8]), the “Mean AUC over 12 hrs” value is 242.3 µg·h/mL. Also, in [3] (setting [8]), the “Mean Cmax” value is reported as 24.9 microgram/mL. In addition, in [3] (setting [9]), the “AUC over 24 hr, range” value is 163-352 microgram-hr/mL. Further, the “Cmax, range” value in data set [3] (setting [9]) is reported as 12.1-30.6 microgram/mL. In addition, the “Median AUC over 24 hr” value in [3] (setting [9]) was 214 microgram-hr/mL. For the same molecule, the “Median Cmax” value in data set [3] (setting [9]) is listed as 14.8 microgram/mL. Besides, the “Sustained plasma level following 500 mg administration” value in [3] (humans, summary of PK studies) was “below 25 microgram/mL”. The “DCS concentration at 2 hr after dosing” value in data set [3] (setting [10]) is recorded as 19.7 microgram/mL. Also, the “DCS concentration at 6 hr after dosing” value in data set [3] (setting [10]) is 18.1 microgram/mL. Further, the “Effect on locomotor stimulation by a low dose of MK-801” value with mice [4] is “potentiated”. For the same molecule, the “Plasma concentrations associated with antagonist effects” value on NMDAR was over 25 µg/mL. The “Plasma concentrations associated with primarily agonist effects” value on NMDAR is under 10 µg/mL. Besides, on NMDAR, the “Plasma levels with increased liability for toxicity” value is over 35 µg/mL. For the same molecule, the “Effect on symptoms of major depression” value in data set [5] was “without significant effect”. In addition, the “Mean distance travelled over 30 min (locomotor activity)” value with Male C57BL/6J mice (DCS 30 mg/kg IP) was 4432.1; with Male C57BL/6J mice (DCS 30 mg/kg IP, listed as D-cycloserine), “not significantly affected”; with Male C57BL/6J mice (DCS 300 mg/kg IP) it was 7588.5; in the data set on Male C57BL/6J mice (DCS 300 mg/kg IP, listed as D-cycloserine), “significantly increased”; in the data set on Male C57BL/6J mice (DCS 1000 mg/kg IP), 9049.8; in the data set with Male C57BL/6J mice (DCS 1000 mg/kg IP, listed as D-cycloserine) it was “significantly increased”. The same molecule came in with a Mean plasma level in data set [6] (250 mg PO every 12 hrs, corresponding to AUC over 12 hrs (Park et al.)) of 20.2 microgram/mL. Besides, the “Median sustained plasma level” value in data set [6] (setting [11]) is on record as 8.9 microgram/mL. Besides, in [6] (setting [11]), the “Sustained plasma level, range” value is recorded as 6.8-14.7 microgram/mL.
Regarding `COc1ccc(C(CN(C)C)C2(O)CCCCC2)cc1` (centres unmarked) [venlafaxine], the “FST additional beneficial effects in combination with DCS” value (“FST additional beneficial effects” for short) with Male BalbC/J mice is on record as “addition beneficial effects”.
For `CN1CCN2c3ncccc3Cc3ccccc3[C@@H]2C1` [R-mirtazapine, R(−)mirtazapine], in the data set on Male BalbC/J mice (5 mg/kg, in absence and presence of DCS, not statistically different), the “FST reduction in immobility, R- vs racemic mirtazapine” value is “numerically greater”. In addition, the “Immobility time” value in the data set on Male BalbC/J mice stood at 68.40 s. Further, the “Marble burying effect relative to racemic mirtazapine” value in the data set on mice [2] (FIG. 4) is reported as “less robust”. Further, the “Number … compared to vehicle” value in the data set with mice [2] (setting [12]) is “significantly reduced”; with mice [2] (FIG. 4, R-mirtazapine 1, 2.5 and 5 mg/kg IP), “did not affect”. Further, the “Relative effects of R- and S-isomers of mirtazapine on marble burying (FIG. 4 legend)” value with mice [2] (FIG. 4 legend) is “greater effects of R- vs S-isomer”. Further, in the data set on rodent, the “Effect in a rodent nociception assay” value is given as “only anti-nociceptive effects”.
In the case of `CN[C@H]1CC[C@@H](c2ccc(Cl)c(Cl)c2)c2ccccc21` [sertraline], in the data set on Male BalbC/J mice, the “FST additional beneficial effects” value is “addition beneficial effects”; the “FST effect of combined antidepressant and DCS vs either agent alone / DCS alone” value (from here on “FST effect … vs either agent alone / DCS alone”) was “significantly larger than with either agent alone; also recorded: effects greater than DCS alone”.
On to `CNCCC(Oc1ccc(C(F)(F)F)cc1)c1ccccc1` (centres unmarked) [fluoxetine], for which the “FST additional beneficial effects” value in the data set on Male BalbC/J mice is listed as “addition beneficial effects”.
`Fc1ccc([C@@H]2CCNC[C@H]2COc2ccc3c(c2)OCO3)cc1` [Paroxetine]: the “Number … compared to vehicle” value in the data set on mice [2] (setting [7]) and in the data set with mice [2] (setting [12]) was “significantly reduced” in each case.
For the molecule `CNCC[C@H](Oc1cccc2ccccc12)c1cccs1` [duloxetine], in the data set with Male BalbC/J mice, the “FST additional beneficial effects” value is on record as “addition beneficial effects”; the “FST effect … vs either agent alone / DCS alone” value is on record as “significantly larger than with either agent alone; also recorded: effects greater than DCS alone”.
For the molecule `CN1CCN2c3ncccc3Cc3ccccc3[C@H]2C1` [S-mirtazapine, S(+)mirtazapine], in the data set on Male BalbC/J mice, the “Immobility time” value came to 117.60 s. The “Marble burying effect relative to racemic mirtazapine” value with mice [2] (FIG. 4) was “significantly more robust”. The “Number … compared to vehicle” value in the data set on mice [2] (setting [12]) is given as “significantly reduced”. Moreover, the “Number of marbles buried, combination with DSC 300 mg/kg vs agent 2.5 mg/kg alone” value with mice [2] (IP 30 min prior) is given as “floor level effects”. The “Effect in a rodent nociception assay” value with rodent was “pro-nociceptive effects”.
With `Cc1ccc(Sc2ccccc2N2CCNCC2)c(C)c1` [vortioxetine], the “FST additional beneficial effects” value in the data set on Male BalbC/J mice is “addition beneficial effects”.
With `CN1CCN2c3ncccc3Cc3ccccc3C2C1` (racemic) [mirtazapine], in the data set on Male BalbC/J mice, the “Immobility time” value turned out to be 92.30 s and the “FST additional beneficial effects” value is “addition beneficial effects”. For the same molecule, the “Number … compared to vehicle” value with mice [2] (setting [7]) is “significantly reduced”. In addition, in the data set with mice [2] (setting [12]), the “Number … compared to vehicle” value is “significantly reduced”. For the same molecule, the “Effect in a rodent nociception assay” value with rodent was “biphasic effects”.
`CC(NC(C)(C)C)C(=O)c1cccc(Cl)c1` (centres unmarked) [bupropion]: in the data set on Male BalbC/J mice, the “FST additional beneficial effects” value is on record as “addition beneficial effects”; the “FST effect … vs either agent alone / DCS alone” value is recorded as “significantly larger than with either agent alone; also recorded: effects greater than DCS alone”.
